{
  "source": "paper PMC11868579",
  "about": "(Nature Communications, 2024)",
  "key": {"[1]": {"tested_on": "cap-dependent translation", "test": "HeLa in vitro translation assay, cap-dependent reporter", "type": "biochemical, human", "conditions": "for fLuc (CAP) luminescence normalized to DMSO control, Average: HeLa lysate IVT, n=3", "experimental": "HeLa In vitro translation (IVT) assay kits were purchased from Thermo Fisher(cat#88882). Bicistronic reporter mRNA was prepared from using a CMV/T7-renilla luciferase-IRES(FDMV)-firefly luciferase reporter vector as template DNA (supplied by Oxford Genetics Ltd.) using Message Machine T7 Ultra transcription Kit (Thermo Fisher, cat# AM1345) to generate in vitro transcribed mRNA. DNA template was removed with Turbo DNase from the transcription kit and the mRNA purified using RNeasy columns (Qiagen, cat#74204). RNA concentration was adjusted to 1 µg/µl using a Nanodrop. In vitro translation assays were then set up using a HeLa IVT kit according to the manufacturer’s protocol. The reaction was analysed using Dual Glo luciferase reporter assays (Promega, cat#E2920). Compounds were diluted from 100x DMSO stocks 1:10 in PBS and 2.5 µl transferred to 96 well PCR plates (Starlab, cat#I1402-9700). 22.5 µl IVT reaction mix (1.5 mL HeLa lysate, 60 µl RNAsin (Promega, cat#N2115), 300 µl accessory proteins, 600 µl reaction buffer, 200 µl nuclease free water and 30 µl […] mRNA) was added and incubated for 30 min at 30 °C (PCR alphacycler 4, PCRmax, Stone, Staffordshire, UK). The samples were placed on ice for 10 min, then 10 µl was removed and transferred to a white 96 well assay plate (Corning, cat#3917). […]"}, "[2]": {"target": "T1, eIF4E major variant (D127) (Homo sapiens, UniProt P06730)", "T1 construct": "made in house; host or cells: E. coli (as described for clone 2983)", "T1 sequence (P06730 with tags, fused parts or gaps)": "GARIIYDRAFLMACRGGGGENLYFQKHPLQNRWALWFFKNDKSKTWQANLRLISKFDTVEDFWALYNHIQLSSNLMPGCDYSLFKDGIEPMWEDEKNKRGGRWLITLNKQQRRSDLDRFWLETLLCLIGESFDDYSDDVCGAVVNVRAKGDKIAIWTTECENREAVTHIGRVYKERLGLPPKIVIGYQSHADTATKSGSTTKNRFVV", "type": "binding", "experimental": "ITC experiments were performed on either a MicroCal VP-ITC or a MicroCal Auto-ITC200 at 25 °C in a buffer comprising 50 mM HEPES, 100 mM NaCl, 1 mM TCEP and 5% DMSO at pH 7.5. Typical titrations on the MicroCal VP-ITC were performed using 17 × 16.4 µL injections with a 250 s spacing between each injection and with a stirring speed of 307 rpm. Typical titrations on the MicroCal Auto-ITC200 were performed using 12 × 3 µL injections with a 150 s spacing between each injection and with a stirring speed of 750 rpm. ITC data analyses were performed with Origin 7.0 software using the “One Set of Sites” model."}, "[3]": {"tested_on": "cap-dependent and cap-independent (IRES) protein synthesis", "test": "Bicistronic protein synthesis reporter in H1299 cells", "type": "cell-based, human", "conditions": "H1299, 24 hr, normalisation not stated", "experimental": "H1299 cells were transfected with a biscistronic vector using Lipofectamine 3000 transfection reagent (Fisher Scientific, cat#L3000008) for 24 hr and then treated with compounds for further 24 h. Luminescence was measured after 24 h of compound treatment using the Dual Glo luciferase reporter assays as above."}, "eIF4E:eIF4G interaction [4]": {"target": "T2, eIF4E:eIF4G interaction (Homo sapiens, UniProt P06730)", "T2 sequence (P06730 2-217 limits assumed)": "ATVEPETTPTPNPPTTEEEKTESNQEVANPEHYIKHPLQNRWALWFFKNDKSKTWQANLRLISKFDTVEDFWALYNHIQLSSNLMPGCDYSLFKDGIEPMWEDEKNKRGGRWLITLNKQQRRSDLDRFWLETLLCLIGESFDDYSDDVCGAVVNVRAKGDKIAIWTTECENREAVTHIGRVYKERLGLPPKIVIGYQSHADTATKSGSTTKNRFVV", "test": "Electro-chemiluminescent binding assay, eIF4E:eIF4G, HeLa cell lysates", "type": "biochemical", "parameters": "endogenous in cells; host or cells: HeLa cells (lysates)", "conditions": "for binding of eIF4G or 4E-BP1 with eIF4E, luminescence normalised to DMSO control, Average: HeLa, n=3, Fig. 4e", "experimental": "(§1) This assay uses plates with carbon electrodes and electro-chemiluminescent labels (SULFO-TAGs) that are conjugated to detection antibodies. When an electric current is applied to the plate electrodes the SULFO-TAG labels will emit light that is measured to quantify analytes in the sample. […] The plates were washed with 3 ×150 µl/well MSD wash buffer (cat#R61AA-1; 0.2% Tween-20 in PBS), then blocked with 150 µl/well block buffer (MSD, cat# R93AA) for 1 h. […] The incubated plates were washed 4x in 150 µl in MSD wash buffer and were re-blocked by the addition of 25 μl of blocking buffer containing a 1:500 dilution of the secondary antibody and incubated for 1 hr at RT with rotational shaking. […] Plates were then washed again 4x in 150 µl in MSD wash buffer and 25 μl of a 1:50 dilution of Goat anti-rabbit Sulfo-Tag (MSD, Cat# R32AB-1) in MSD blocking buffer was added and the plates incubated for 1 h at RT with rotational shaking. After a final wash step, 150 μl Read Buffer T4X (MSD, Cat# R92-TC2) was added and the plate read using the MSD QuickPlex SQ 120 plate reader."}, "eIF4E–4E-BP1 interaction": {"target": "eIF4E–4E-BP1 interaction (Homo sapiens, UniProt P06730)", "sequence (P06730 2-217 limits assumed)": "as above", "test": "Electro-chemiluminescent binding assay, eIF4E:4E-BP1, HeLa cell lysates", "type": "biochemical", "parameters": "endogenous in cells; host or cells: HeLa cell lysates", "conditions": "read-out: Inhibition of PPI in HeLa cells: eIF4E–4E-BP1 interaction; HeLa cell lysates, values in parentheses", "experimental": "as §1"}, "[5]": {"tested_on": "H1299 eIF4E-dTAG clones (C2-2, C3-1, N2-1, N3-2) and C3-1 rescue models", "test": "IncuCyte real-time cell growth of eIF4E-dTAG clones and rescue models", "type": "cell-based, human", "experimental": "Real time monitoring of cell growth was performed with the IncuCyte ZOOM live cell imaging system (Essen BioSciences, USA). Cells were seeded in 96 well plates (Corning, cat#353072) and treated on the next day. The resulting phase-contrast images were analysed using IncuCyte ZOOM 2018A software and results were expressed as percentage confluency of cells."}, "eIF4E:eIF4G interaction [6]": {"target": "T2, eIF4E:eIF4G interaction", "test": "Electro-chemiluminescent binding assay, eIF4E:eIF4G, H1299 cell lysates", "type": "biochemical", "parameters": "endogenous in cells; host or cells: HeLa, SW620 or H1299 cells (lysates; intact H1299 cells in A13)", "conditions": "for endogenous eIF4E:eIF4G interaction, electro-chemiluminescent signal, Average: n=3, 0 μM control in r69", "experimental": "as §1"}},
  "note": "Where “and” joins values, the source holds several entries; their conditions need not be identical. Equal entries are not always repeated.",
  "data": [
    {"compound": "CC[C@@H](O[C@H](C)CO)c1ccc(-c2ccccc2F)cc1NCCO", "note": "[Compound 5]", "values": [
      {"measurement": "effect on cap-dependent translation", "setting": "[1]; 1, 10, 100 µM", "value": "no significant effect"},
      {"measurement": "fLuc (CAP) luminescence normalized to DMSO control, Average", "setting": "[1]; 1 μM", "value": 115.8, "unit": "%"},
      {"measurement": "fLuc (CAP) luminescence normalized to DMSO control, Average", "setting": "[1]; 10 μM", "value": 67.5, "unit": "%"},
      {"measurement": "fLuc (CAP) luminescence normalized to DMSO control, Average", "setting": "[1]; 100 μM", "value": 84.6, "unit": "%"},
      {"measurement": "reduced binding affinity by ITC", "setting": "[2]; compound 5 versus compound 4", "value": 30, "unit": "fold"},
      {"measurement": "LE (ligand efficiency)", "setting": "[2]; major variant D127 (values in parentheses)", "value": "- (0.3) (kcal/mol)/heavy atom"},
      {"measurement": "Kd", "setting": "[2]; read-out: eIF4E Kd, ITC, major variant D127 (values in parentheses)", "value": 3000, "unit": "nM"},
      {"measurement": "protein synthesis reporter signal (cap-dependent luciferase / IRES luciferase), replicate values", "setting": "[3]; 10 μM", "value": "0.991 and 1.031 and 2.154 and 1.191 and 1.096 and 0.294"},
      {"measurement": "protein synthesis reporter signal (cap-dependent luciferase / IRES luciferase), replicate values", "setting": "[3]; 25 μM", "value": "1.003 and 1.037 and 1.187 and 0.927 and 1.046 and 2.532"},
      {"measurement": "effect on eIF4G binding", "setting": "eIF4E:eIF4G interaction [4]; HeLa cell lysates", "value": "limited effect on eIF4G binding compared to 4"},
      {"measurement": "EC50", "setting": "eIF4E:eIF4G interaction [4]; HeLa cell lysates, n = 4, read-out: Inhibition of PPI in HeLa cells: eIF4E-eIF4G interaction", "value": "> 100", "unit": "µM"},
      {"measurement": "binding of eIF4G or 4E-BP1 with eIF4E, luminescence normalised to DMSO control, Average", "setting": "eIF4E:eIF4G interaction [4]; Conc 0.03 μM", "value": 75.0, "unit": "%"},
      {"measurement": "binding of eIF4G or 4E-BP1 with eIF4E, luminescence normalised to DMSO control, Average", "setting": "eIF4E:eIF4G interaction [4]; Conc 0.1 μM", "value": 70.5, "unit": "%"},
      {"measurement": "binding of eIF4G or 4E-BP1 with eIF4E, luminescence normalised to DMSO control, Average", "setting": "eIF4E:eIF4G interaction [4]; Conc 0.3 μM", "value": 80.4, "unit": "%"},
      {"measurement": "binding of eIF4G or 4E-BP1 with eIF4E, luminescence normalised to DMSO control, Average", "setting": "eIF4E:eIF4G interaction [4]; Conc 1 μM", "value": 86.3, "unit": "%"},
      {"measurement": "binding of eIF4G or 4E-BP1 with eIF4E, luminescence normalised to DMSO control, Average", "setting": "eIF4E:eIF4G interaction [4]; Conc 3 μM", "value": 81.2, "unit": "%"},
      {"measurement": "binding of eIF4G or 4E-BP1 with eIF4E, luminescence normalised to DMSO control, Average", "setting": "eIF4E:eIF4G interaction [4]; Conc 10 μM", "value": 84.0, "unit": "%"},
      {"measurement": "binding of eIF4G or 4E-BP1 with eIF4E, luminescence normalised to DMSO control, Average", "setting": "eIF4E:eIF4G interaction [4]; Conc 30 μM", "value": 77.0, "unit": "%"},
      {"measurement": "binding of eIF4G or 4E-BP1 with eIF4E, luminescence normalised to DMSO control, Average", "setting": "eIF4E:eIF4G interaction [4]; Conc 100 μM", "value": 75.2, "unit": "%"},
      {"measurement": "binding of eIF4G or 4E-BP1 with eIF4E, luminescence normalised to DMSO control, Average", "setting": "eIF4E:eIF4G interaction [4]; Conc 300 μM", "value": 79.2, "unit": "%"},
      {"measurement": "binding of eIF4G or 4E-BP1 with eIF4E, luminescence normalised to DMSO control, Average", "setting": "eIF4E:eIF4G interaction [4]; Conc 1000 μM", "value": 79.6, "unit": "%"},
      {"measurement": "EC50", "setting": "eIF4E–4E-BP1 interaction", "value": "> 100", "unit": "µM"},
      {"measurement": "effects on cell growth, control combination", "setting": "[5]; compound 5 with dTAG^V-1", "value": "no significant effects"},
      {"measurement": "endogenous eIF4E:eIF4G interaction, electro-chemiluminescent signal, Average", "setting": "eIF4E:eIF4G interaction [6]; 0.1 μM", "value": 815674.7},
      {"measurement": "endogenous eIF4E:eIF4G interaction, electro-chemiluminescent signal, Average", "setting": "eIF4E:eIF4G interaction [6]; 1 μM", "value": 773437.1},
      {"measurement": "endogenous eIF4E:eIF4G interaction, electro-chemiluminescent signal, Average", "setting": "eIF4E:eIF4G interaction [6]; 10 μM", "value": 757778.5},
      {"measurement": "inhibition of eIF4G:eIF4E binding", "setting": "eIF4E:eIF4G interaction [6]; 100 µM", "value": "~ 10%"},
      {"measurement": "endogenous eIF4E:eIF4G interaction, electro-chemiluminescent signal, Average", "setting": "eIF4E:eIF4G interaction [6]; 100 μM", "value": 644050.9}
    ]},
    {"compound": "CC[C@H](C(=O)N1CCCC[C@H]1C(=O)O[C@H](CCc1ccc(OC)c(OC)c1)c1ccccc1OCC(=O)NCCCCCCC(=O)N[C@H](C(=O)N1C[C@H](O)C[C@H]1C(=O)N[C@@H](C)c1ccc(-c2scnc2C)cc1)C(C)(C)C)c1cc(OC)c(OC)c(OC)c1", "note": "[dTAG^V-1]", "values": [
      {"measurement": "growth of eIF4E-dTAG clones", "setting": "[5]; treatment for 6 days, 0.5 or 1 µM", "value": "inhibited growth of all 4 clones"}
    ]}
  ]
}
